# Laboratory results reported in doi:10.1101/2025.03.24.645127v1 (biorxiv, 2025).
# Target: T1, GPR119 (Homo sapiens, UniProt Q8TDV5)
# T1 sequence (Q8TDV5 1-335): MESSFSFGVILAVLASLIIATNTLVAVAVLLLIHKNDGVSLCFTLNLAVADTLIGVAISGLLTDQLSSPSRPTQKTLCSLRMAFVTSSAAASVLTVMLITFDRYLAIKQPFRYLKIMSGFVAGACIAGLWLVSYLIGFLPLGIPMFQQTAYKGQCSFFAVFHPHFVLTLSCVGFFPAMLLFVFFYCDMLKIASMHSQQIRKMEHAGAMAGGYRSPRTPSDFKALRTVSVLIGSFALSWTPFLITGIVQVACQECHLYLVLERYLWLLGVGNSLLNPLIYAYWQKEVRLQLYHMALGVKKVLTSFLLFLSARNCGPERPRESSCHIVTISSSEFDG
# Experiment: cAMP GloSensor assay in CHO-K1
# Format: cell-based
compound,measurement,value
COC(=O)N[C@H](C(=O)N[C@@H](Cc1ccccc1)[C@@H](O)CN(Cc1ccc(-c2ccccn2)cc1)NC(=O)[C@@H](NC(=O)OC)C(C)(C)C)C(C)(C)C [atazanavir],EC50,~3 µM
